Data as given in publication PMC6843786, “Temporin-SHa and Its Analogs as Potential Candidates for the Treatment of Helicobacter pylori” (Biomolecules, 2019).
Read-outs that look alike come from different tables or passages of the source. Each block holds one compound with its values, some of them ahead of it. Non-standard residues stand in square brackets, D forms with d. Residues, ends and D or L forms follow the SMILES beside them.

How the values were obtained:
N87 cells = experiment: In vitro toxicity assay using human gastric cells (resazurin); assay type: cell-based
Procedure: [26] Human gastric cells N87 (ATCC CRL-5822) were cultured in RPMI-1640 medium supplemented with 10% fetal calf serum (FCS), 1% L-glutamine and 1% antibiotics (all from Invitrogen, Carlsbad, CA, USA) and were routinely seeded onto 25 cm^2 flasks maintained in a 5% CO2 incubator at 37 °C. For the toxicity assay, cells grown on 25 cm^2 flasks were detached using trypsin–EDTA solution (from Thermofisher), counted using Mallasez counting chamber and seeded into 96-well cell culture plates (Greiner Bio-one) at approximately 10^4 cells per well. The cells were left to grow for 48–72 h at 37 °C in a 5% CO2 incubator until they reached confluence. Plates were then aspirated and increasing concentrations of peptides were added to the cells for 48 h at 37 °C in a 5% CO2 incubator, volume of water corresponding to the volume of peptides being used as negative control. At the end of the incubation, wells were aspirated, and cell viability was evaluated using resazurin-based in vitro toxicity assay kit (Sigma-Aldrich) following manufacturer’s instructions. Briefly, resazurin stock solution was diluted 1:10 in sterile PBS containing calcium and magnesium (PBS^++, pH 7.4) and empty wells were filled with 100 µL of the diluted solution. After 4 h incubation at 37 °C, fluorescence intensity was measured using microplate reader (Synergy Mx, Biotek) with an excitation wavelength of 530 nm and an emission wavelength of 590 nm. The fluorescence values were normalized by the controls and expressed as percent viability.

H. pylori (ATCC 43504) [1] = experiment: Membrane permeabilization assay (propidium iodide); details: not told
Procedure: Bacterial membrane permeabilization was evaluated using the cell-impermeable DNA/RNA probe propidium iodide as previously explained. Logarithmic growing bacterial suspension of H. pylori (ATCC 43504) was prepared from overnight bacterial suspension after 1:10 dilution. After 3 h incubation at 37 °C, in microaerophilic condition, bacterial suspensions were centrifuged for 5 min at 3000× g. Cell pellets were then resuspended in sterile PBS at about […]. Propidium iodide (solution at 1 mg/mL, Sigma Aldrich) was then added to the suspension at a final concentration of 60 µM. 100 µL of this suspension were then transferred into 96-well black plates and were exposed to increasing concentrations of peptides obtained by serial dilution (from zero to 100 µM, 1:2 dilution). […] Kinetics of fluorescence variations (excitation at 530 nm and emission at 590 nm) were then recorded over 240 min of incubation at 37 °C in micro-aerobic condition using a microplate reader (Biotek, Synergy Mx). The effect of the peptides on the membrane integrity was expressed in percentage of permeabilization, CTAB at 300 µM being used as positive control giving 100% permeabilization. All experiments were done in triplicate.

[2] = test system: total lipids extracted from H. pylori (ATCC 43504); experiment: Lipid insertion assay (lipid monolayer, critical pressure of insertion); parameters: species or system biophysical; details: peptide 1 µM, PBS pH 7.4, from the line fits of Figure 4
Procedure: Peptide-lipid interaction was measured using reconstituted lipid monolayer at the air-water interface as previously described. Total lipids were extracted from overnight cultures of H. pylori (ATCC 43504) using Folch extraction procedure as previously described. Extracted total lipids were dried, resolubilized in chloroform:methanol (2:1, v/v) and stored at -20 °C under nitrogen. For peptide-lipid interaction assay, total lipid extract was spread using a 50 μL Hamilton's syringe at the surface of 800 μL of sterile PBS creating a lipid monolayer at the air-water interface. Lipids were added until the surface pressure reached the desired value. […] The variation of the surface pressure caused by peptide injection was then continuously monitored using a fully automated microtensiometer (μTROUGH SX, Kibron Inc., Helsinki, Finland) until reaching equilibrium (maximal surface pressure increase being usually obtained after 15-25 min). […] Variation of surface pressure was plotted as a function of initial surface pressure and the critical pressure of insertion of each peptide into H. pylori lipids was calculated as the theoretical value of initial pressure of lipid monolayer not permissive to peptide insertion, i.e., giving a variation of pressure equal to 0 mN/m.

H. pylori (ATCC 43504) [3] = test system: H. pylori (ATCC 43504)
Source text: (§1) H. pylori used in this study were either the reference strain obtained from the American Type Culture Collection (ATCC 43504) or clinical strains received frozen from our collaborator Josette Raymond from Hospital Cochin, Paris. Strains were obtained from patients who underwent a gastroendoscopy performed for various gastro-intestinal disorders according to the recommendations of Haute Autorité de Santé (HAS). During the endoscopy, biopsy samples were taken from antrum and corpus. Samples were then crushed, and the material was used for bacterial culture and molecular methods. An antibiogram was performed and strains were then frozen at -80 °C in a broth with 10% glycerol. Bacteria were cultured as previously described. Briefly, H. pylori (ATCC 43504) was cultured in brain heart infusion (BHI) and incubated at 37 °C for 16 h in microaerophilic condition in BD GasPak EZ using BD GasPak EZ CampyPak container system sachets (BD Biosciences, Le Pont-de-Claix, France). For clinical strains, a sample from the frozen bacteria was streaked on Blood Agar (Base) (Sigma-Aldrich, Illkirch-Graffenstaden, France) supplemented with 5% horse defibrinated blood (Fisher Scientific, Les Ulis, France) and 2% isovitale-X (Fisher Scientific, Illkirch-Graffenstaden, France). The petri dishes were then incubated at 37 °C for 4–7 days in microaerophilic condition. Then, a colony is transferred to 3 mL Mueller Hinton (MH) broth supplemented with 10% fetal bovine serum (FBS) and 2% isovitale-X. The cultures were then incubated for 4–7 days until the bacteria grow before further experiments.
(§2) Briefly, after the growth of H. pylori in liquid culture the optical density (OD) of the bacterial suspensions were read at 600 nm and adjusted to one. Stock solutions of the peptides at 1 mM were prepared in sterile water. Bacteria were diluted in medium to reach bacterial density around 10^5 bacteria/mL. One-hundred microliters per well of bacterial suspension were then added into sterile polypropylene 96-well microplates (Greiner BioOne, Paris, France) and exposed to increasing concentrations of peptides (from zero to 100 µM, 1:2 serial dilution). […] Plates were incubated at 37 °C for 24 h for H. pylori (ATCC 43504) and for 4–7 days for the clinical strains. H. pylori was tested in microaerophilic conditions generated using micro-anaerobic BD GasPak system. At the end of the incubation, OD600nm was measured using microplate reader (Synergy Mx, Biotek, Colmar, France). The MIC was defined as the lowest concentration of drug that inhibited visible growth of the organism. Experiments were conducted in independent triplicate (n = 3).

H. pylori (ATCC 43504) [4] = experiment: MIC after digestion by pepsin (resistance to pepsin); details: 4 h at 37 °C with pepsin 1 mg/mL in HCl pH 2
Procedure: as §2
(§3) It is also rich with mucus to protect it from the aggressive acidity. For this reason, the impact of mucins and pepsin on the activity of the peptides was investigated. The impact of the gastric mucins on peptide activity was evaluated using a combination of commercial porcine stomach mucins MUC2 and MUC3 (Sigma–Aldrich) at a final concentration of 1 mg/mL sterilized using 0.2 µm filter. This concentration was used based on the estimated concentration of mucins present in the mucus in vivo [27]. The effect of mucins on peptides activity was evaluated by MIC and by time killing assay as explained below. The resistance of the peptides to pepsin was tested as previously described with some changes. […] This concentration was used since it corresponds the pepsin concentration in the stomach (0.5–1 mg/mL).

H. pylori (ATCC 43504) [5] = test system: H. pylori (ATCC 43504); remark: listed apart in the source
Procedure: as §2, §3

[6] = test system: clinical strains of H. pylori; details: for MIC: MH + 10% FBS + 2% isovitale-X
Source text: as §1, §2

membrane permeabilization of H. pylori (ranking in words) (H. pylori (ATCC 43504) [1]): weakest permeabilization effect
MIC on H. pylori (ATCC 43504) (H. pylori (ATCC 43504) [3]; ATCC 43504, 24 h): 100 µM
SMILES: CC[C@H](C)[C@H](NC(=O)[C@@H](C)NC(=O)[C@H](CO)NC(=O)[C@H](CC(C)C)NC(=O)[C@@H](N)Cc1ccccc1)C(=O)N[C@H](C(=O)N[C@H](C)C(=O)N[C@@H](CCSC)C(=O)N[C@@H](CC(C)C)C(=O)N[C@H](C)C(=O)N[C@@H](CCCCN)C(=O)N[C@@H](CC(C)C)C(=O)N[C@@H](Cc1ccccc1)C(N)=O)C(C)C [NST5, H-Phe^1-Leu^2-Ser^3-D-Ala^4-Ile^5-Val^6-D-Ala^7-Met^8-Leu^9-D-Ala^10-Lys^11-Leu^12-Phe^13-NH2] (H-FLS[dA]IV[dA]ML[dA]KLF-NH2)
increase in toxicity to human gastric cells compared to temporin-SHa (N87 cells): twice
IC50 (N87 cells; 48 h): 762 ± 235 µM
critical pressure of insertion (CPI) [2]: 33.99 mN/m

SMILES: CC[C@H](C)[C@H](NC(=O)[C@@H](C)NC(=O)[C@H](CO)NC(=O)[C@H](CC(C)C)NC(=O)[C@@H](N)Cc1ccccc1)C(=O)N[C@H](C(=O)NCC(=O)N[C@@H](CCSC)C(=O)N[C@@H](CC(C)C)C(=O)NCC(=O)N[C@@H](CCCCN)C(=O)N[C@@H](CC(C)C)C(=O)N[C@@H](Cc1ccccc1)C(N)=O)C(C)C [NST2, H-Phe^1-Leu^2-Ser^3-D-Ala^4-Ile^5-Val^6-Gly^7-Met^8-Leu^9-Gly^10-Lys^11-Leu^12-Phe^13-NH2] (H-FLS[dA]IVGMLGKLF-NH2)
MIC after Digestion by Pepsin (H. pylori (ATCC 43504) [4]): >50 µM
IC50 (N87 cells; 48 h incubation, resazurin cell viability, read-out: IC50 on N87 Cells): 1250 ± 240 µM
increase in toxicity to human gastric cells compared to temporin-SHa (N87 cells; from IC50 on N87 cells): around 1.2 fold
increase of MIC in the presence of mucins (H. pylori (ATCC 43504) [5]; MUC2 and MUC3 at 1 mg/mL versus no mucins): two
MIC in the Presence of mucins (H. pylori (ATCC 43504) [5]; porcine gastric mucins MUC2 and MUC3 at 1 mg/mL): 25 µM
critical pressure of insertion (CPI) [2]: 37.86 mN/m
MIC on H. pylori (ATCC 43504) (H. pylori (ATCC 43504) [3]; MH medium, 24 h, microaerophilic): 12.5 µM
MIC on H. pylori (ATCC 43504) in MH supplemented with 10% FBS (H. pylori (ATCC 43504) [3]; MH supplemented with 10% FBS): 50 µM
reduction in the antibacterial activity compared to temporin-SHa (H. pylori (ATCC 43504) [3]; from MIC on H. pylori (ATCC 43504)): 4 times
MIC values against resistant clinical strains (span over all strains) ([6]; all resistant clinical strains, MH + 10% FBS): 50 to 100 µM
MIC ([6]; clinical strain BM18, resistance Clari/Metro): 50 µM
MIC ([6]; clinical strain EM68, resistance Clari/Metro): 100 µM
MIC ([6]; clinical strain LN18, resistance Clari): 50 µM
MIC ([6]; clinical strain MF76, resistance Clari/Metro): 50 µM
MIC ([6]; clinical strain MP78, resistance Clari/Metro): 50 µM
MIC ([6]; clinical strain MS67, resistance Clari/Metro): 50 µM
MIC ([6]; clinical strain NM44, resistance Clari/Metro): 50 µM

membrane permeabilization of H. pylori (ranking in words) (H. pylori (ATCC 43504) [1]): weakest permeabilization effect
MIC on H. pylori (ATCC 43504) (H. pylori (ATCC 43504) [3]; ATCC 43504, 24 h): 50 µM
SMILES: CC[C@H](C)[C@H](NC(=O)[C@H](C)NC(=O)[C@H](CO)NC(=O)[C@H](CC(C)C)NC(=O)[C@@H](N)Cc1ccccc1)C(=O)N[C@H](C(=O)NCC(=O)N[C@@H](CCSC)C(=O)N[C@@H](CC(C)C)C(=O)N[C@@H](C)C(=O)N[C@@H](CCCCN)C(=O)N[C@@H](CC(C)C)C(=O)N[C@@H](Cc1ccccc1)C(N)=O)C(C)C [NSTL7, H-Phe^1-Leu^2-Ser^3-L-Ala^4-Ile^5-Val^6-Gly^7-Met^8-Leu^9-L-Ala^10-Lys^11-Leu^12-Phe^13-NH2] (H-FLSAIVGMLAKLF-NH2)
IC50 (N87 cells; 48 h): 2290 ± 762 µM
critical pressure of insertion (CPI) [2]: not able to insert at all
